From patent US10961216B2, “Small molecule modulators of the androgen receptor” (Massachusetts Institute of Technology, priority 2017, dated 2021)

Columns and labels:
VCaP (AR+) cell lines = assay: cell proliferation, VCaP; format: cell-based; conditions: 72 hours
prostate cancer cell = prostate cancer cell proliferation, different cancer cell lines; format: cell-based; conditions: 72 hours
22Rv1 (AR+) cell lines = assay: cell proliferation, 22Rv1; format: cell-based; conditions: 72 hours
AR-v7 = biological target: T1, AR-v7 (Homo sapiens, UniProt P10275); assay: small molecule microarray (SMM) screen, binding to AR-v7; conditions: SMM screened against AR-truncate of NTD and DBD (exons 1-3), with qPCR and reporter assays
T1 construct: screened against a functional AR-truncate composed of the NTD and DBD (exons 1-3)
T1 sequence (P10275 1-628 limits assumed): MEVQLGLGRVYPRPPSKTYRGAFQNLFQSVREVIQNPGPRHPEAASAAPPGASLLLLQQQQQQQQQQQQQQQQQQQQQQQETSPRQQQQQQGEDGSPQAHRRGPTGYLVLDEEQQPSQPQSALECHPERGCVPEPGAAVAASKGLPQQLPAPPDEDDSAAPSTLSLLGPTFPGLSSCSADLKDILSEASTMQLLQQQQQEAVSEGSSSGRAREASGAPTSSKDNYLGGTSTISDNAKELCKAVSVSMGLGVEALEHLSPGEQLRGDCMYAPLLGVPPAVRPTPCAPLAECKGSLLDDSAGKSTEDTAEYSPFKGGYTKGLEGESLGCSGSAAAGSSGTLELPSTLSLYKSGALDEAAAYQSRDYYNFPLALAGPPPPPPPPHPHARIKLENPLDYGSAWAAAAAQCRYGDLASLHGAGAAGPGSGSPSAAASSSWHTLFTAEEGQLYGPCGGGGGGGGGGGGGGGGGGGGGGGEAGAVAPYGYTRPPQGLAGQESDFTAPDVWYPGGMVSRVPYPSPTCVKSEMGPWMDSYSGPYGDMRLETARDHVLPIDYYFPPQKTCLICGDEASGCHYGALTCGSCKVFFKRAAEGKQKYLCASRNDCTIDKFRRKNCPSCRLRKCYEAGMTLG
From the text: (§1) To meet this need, compounds binding to AR-v7 were identified using the combination of a small molecule microarray (SMM) screen of 50,000 compounds, qPCR, and reporter assays. The SMM was screened against a functional AR-truncate composed of the NTD and DBD (exons 1-3) and therefore targeting these domains specifically. Candidate compounds were further evaluated in a series of assays designed to show specificity to AR-sensitive cell lines.

aggregation monitoring = format: physicochemical; conditions: at IC50 in RPMI, DMSO, or PBS
Procedure: All compounds were evaluated in a reporter gene assay (22Rv1 cell line lentiviral transduced with CMV-firefly luciferase) to monitor transcriptional effects and two cell viability assays (Cell-titer blue; PC3 cell line, an AR insensitive cell line, and LNCaP cell line, an AR sensitive cell line). The compounds were also monitored for aggregation.

DU-145 (AR-) cell lines = assay: cell proliferation, DU-145; format: cell-based; conditions: 72 hours
LNCaP = LNCaP reporter assay; format: cell-based; conditions: Homo sapiens
From the text: as §1
Compounds of the invention may also be identified via a reporter assay. Reporter assays are commonly used to study signaling pathways, gene expression and regulation at the transcriptional level, and the structure of regulatory elements. In general, a reporter assay comprises a regulatory element of interest (e.g. promoter DNA) along with a reporter gene (e.g., gene encoding a reporter protein) cloned into a vector and transfected into cells. In certain embodiments, a reporter is a protein. In certain embodiments, a reporter is a protein with an easily measureable activity. “Easily measureable activity” (or simply “activity”) can refer to any activity that can be measured through methods known in the art, such as fluorescence, enzymatic activities that generate fluorescent or luminescent products, or indirectly with antibodies. […]

LNCaP (AR+) cell lines = assay: cell proliferation, LNCaP; format: cell-based, human; conditions: 72 hours
PC3 (AR-) cell lines = assay: cell proliferation, PC3; format: cell-based; conditions: 72 hours

SMILES	cell proliferation (percent confluence) (VCaP (AR+) cell lines)	prostate cancer cell proliferation (relative proliferation, percent confluence) (prostate cancer cell)	cell proliferation (percent confluence) (22Rv1 (AR+) cell lines)	binding to AR-v7 (AR-v7)	formation of aggregates (aggregation monitoring)	cell proliferation (percent confluence) (DU-145 (AR-) cell lines)	IC50 (LNCaP)	cell proliferation (percent confluence) (LNCaP (AR+) cell lines)	cell proliferation (percent confluence) (PC3 (AR-) cell lines)
O=C(NCCC1C[C@@H]2C=C[C@H]1C2)c1cccc(OC2CCN(C(=O)C3CC3)CC2)c1 (stereo partly drawn) [Compound (1), N-(2-((1S,4S)-bicyclo[2.2.1]hept-5-en-2-yl)ethyl)-3-((1-(cyclopropanecarbonyl)piperidin-4-yl)oxy)benzamide]	stagnates prostate cancer cell proliferation	stagnates prostate cancer cell proliferation	stagnates prostate cancer cell proliferation	found to bind to AR-v7	does not form aggregates	stagnates prostate cancer cell proliferation	5.43 µM	stagnates prostate cancer cell proliferation	stagnates prostate cancer cell proliferation
Cc1c(C(=O)N(C)Cc2cccc3ncccc23)sc2ncnc(NCC3C[C@@H]4C=C[C@H]3C4)c12 (stereo partly drawn) [Compound (2), 4-((((1R,4R)-bicyclo[2.2.1]hept-5-en-2-yl)methyl)amino)-N,5-dimethyl-N-(quinolin-5-ylmethyl)thieno[2,3-d]pyrimidine-6-carboxamide]	–	–	–	found to bind to AR-v7	–	–	6.86 µM	–	–
